Experimental data published in patent US20140155389A1, “BICYCLIC INHIBITORS OF ALK” (ABBVIE INC., priority 2011, published 2014).
pKi: −log10 of the molar value.

Molecular target: T1, ALK (Homo sapiens, UniProt Q9UM73)
T1 construct: purchased Millipore
Assay: ALK kinase assay (HTRF)
Format: biochemical
Conditions: apparent Ki from IC50 by Cheng-Prusoff; ALK (Millipore) 3 nM or 4 nM, 50 μM ATP, 1 h at room temperature; read-out: HTRF_ALK Human - Ki

T1 sequence (Q9UM73 19-1620): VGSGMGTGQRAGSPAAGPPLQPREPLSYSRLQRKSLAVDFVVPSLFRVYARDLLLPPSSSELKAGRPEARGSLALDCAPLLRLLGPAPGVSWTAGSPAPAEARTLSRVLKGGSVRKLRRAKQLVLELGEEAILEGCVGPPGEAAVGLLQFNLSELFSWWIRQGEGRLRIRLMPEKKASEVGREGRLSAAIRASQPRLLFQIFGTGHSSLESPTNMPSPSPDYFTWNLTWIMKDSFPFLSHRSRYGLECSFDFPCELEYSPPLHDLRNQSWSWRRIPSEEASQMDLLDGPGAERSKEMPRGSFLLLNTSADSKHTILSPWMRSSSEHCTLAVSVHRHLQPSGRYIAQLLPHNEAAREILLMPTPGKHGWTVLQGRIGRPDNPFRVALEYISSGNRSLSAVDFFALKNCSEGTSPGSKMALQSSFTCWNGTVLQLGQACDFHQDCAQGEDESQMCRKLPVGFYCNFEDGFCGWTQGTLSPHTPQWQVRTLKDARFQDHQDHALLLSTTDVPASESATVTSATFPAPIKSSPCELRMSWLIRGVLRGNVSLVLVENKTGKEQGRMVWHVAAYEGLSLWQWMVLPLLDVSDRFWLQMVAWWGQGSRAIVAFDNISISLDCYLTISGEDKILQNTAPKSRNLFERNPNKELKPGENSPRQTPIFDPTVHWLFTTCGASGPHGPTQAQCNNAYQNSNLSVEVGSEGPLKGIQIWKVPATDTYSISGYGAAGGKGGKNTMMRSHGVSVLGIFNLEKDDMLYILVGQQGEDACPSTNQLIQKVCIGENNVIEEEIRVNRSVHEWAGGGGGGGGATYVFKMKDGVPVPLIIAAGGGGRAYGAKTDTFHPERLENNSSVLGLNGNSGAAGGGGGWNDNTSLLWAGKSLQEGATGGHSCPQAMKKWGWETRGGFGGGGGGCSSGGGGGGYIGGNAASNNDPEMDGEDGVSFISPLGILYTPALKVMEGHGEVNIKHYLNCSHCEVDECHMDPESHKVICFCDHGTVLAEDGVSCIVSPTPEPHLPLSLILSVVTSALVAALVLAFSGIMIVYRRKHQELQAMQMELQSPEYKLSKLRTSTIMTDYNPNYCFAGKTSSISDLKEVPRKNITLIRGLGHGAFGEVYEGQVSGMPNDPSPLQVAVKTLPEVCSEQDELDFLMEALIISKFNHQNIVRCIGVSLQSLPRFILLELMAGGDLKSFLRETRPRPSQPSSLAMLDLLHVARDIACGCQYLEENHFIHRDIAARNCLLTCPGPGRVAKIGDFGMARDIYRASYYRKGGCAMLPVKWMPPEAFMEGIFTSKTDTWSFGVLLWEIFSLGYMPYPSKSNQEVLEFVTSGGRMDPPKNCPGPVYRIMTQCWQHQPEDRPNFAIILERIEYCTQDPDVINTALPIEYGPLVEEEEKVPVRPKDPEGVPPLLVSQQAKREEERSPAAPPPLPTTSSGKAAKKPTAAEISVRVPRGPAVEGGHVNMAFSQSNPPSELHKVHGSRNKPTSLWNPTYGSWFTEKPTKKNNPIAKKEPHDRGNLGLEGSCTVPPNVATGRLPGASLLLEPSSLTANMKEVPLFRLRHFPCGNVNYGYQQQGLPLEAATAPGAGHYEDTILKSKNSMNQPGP

Structure (SMILES) | pKi
COc1cc(N2CCNCC2)ccc1Nc1nc(Nc2ccccn2)cc2cn[nH]c(=O)c12 [Example 43, 5-{[2-methoxy-4-(piperazin-1-yl)phenyl]amino}-7-(pyridin-2-ylamino)pyrido[3,4-d]pyridazin-4(3H)-one] | 7.82
COc1cc(N2CCNCC2)ccc1Nc1nc(Cc2c(Cl)cccc2Cl)cc2c1C(=O)NCN2 [Example 1, 7-(2,6-dichlorobenzyl)-5-{[2-methoxy-4-(piperazin-1-yl)phenyl]amino}-2,3-dihydropyrido[4,3-d]pyrimidin-4(1H)-one] | 7.96
COc1cc(N2CCNCC2)ccc1Nc1nc(Nc2c(F)cc(F)cc2F)cc2cn[nH]c(=O)c12 [Example 52, 5-{[2-methoxy-4-(piperazin-1-yl)phenyl]amino}-7-[(2,4,6-trifluorophenyl)amino]pyrido[3,4-d]pyridazin-4(3H)-one] | 8.70
COCCNc1cc2cnnc(O)c2c(Nc2ccc(N3CCNCC3)cc2OC)n1 [Example 36, 7-[(2-methoxyethyl)amino]-5-{[2-methoxy-4-(piperazin-1-yl)phenyl]amino}pyrido[3,4-d]pyridazin-4-ol] | 7.59
N#Cc1cc(N2CCNCC2)ccc1Nc1nc(Oc2ccccc2Cl)cc2cnnc(O)c12 [Example 120, 2-{[7-(2-chlorophenoxy)-4-hydroxypyrido[3,4-d]pyridazin-5-yl]amino}-5-(piperazin-1-yl)benzonitrile] | 8.70
COc1cc(N2CCN(C)CC2)ccc1Nc1nc(Cc2c(Cl)cccc2Cl)cc2cn[nH]c(=O)c12 [Example 30, 7-(2,6-dichlorobenzyl)-5-{[2-methoxy-4-(4-methylpiperazin-1-yl)phenyl]amino}pyrido[3,4-d]pyridazin-4(3H)-one] | 8.52

Results, then the compound that gave them:

pKi | Structure (SMILES)
6.43 | Cc1cc(N2CCNCC2)cc(C)c1Nc1nc(Cc2c(Cl)cccc2Cl)cc2cnnc(O)c12 [Example 21, 7-(2,6-dichlorobenzyl)-5-{[2,6-dimethyl-4-(piperazin-1-yl)phenyl]amino}pyrido[3,4-d]pyridazin-4-ol]
8.15 | COc1cc(N2CCNCC2)ccc1Nc1nc(N2CCCCC2)cc2cn[nH]c(=O)c12 [Example 39, 5-{[2-methoxy-4-(piperazin-1-yl)phenyl]amino}-7-(piperidin-1-yl)pyrido[3,4-d]pyridazin-4(3H)-one]
7.68 | COc1cc(N2CCNCC2)ccc1Nc1nc(NC2=N[C@H](C(C)C)CO2)cc2cnnc(O)c12 [Example 23, 5-{[2-methoxy-4-(piperazin-1-yl)phenyl]amino}-7-{[(4R)-4-(propan-2-yl)-4,5-dihydro-1,3-oxazol-2-yl]amino}pyrido[3,4-d]pyridazin-4-ol]
8.40 | COc1cc(N2CCNCC2)ccc1Nc1nc(OC2CCCC2)cc2cnnc(O)c12 [Example 87, 7-(cyclopentyloxy)-5-{[2-methoxy-4-(piperazin-1-yl)phenyl]amino}pyrido[3,4-d]pyridazin-4-ol]
8.40 | COc1cc(N2CCNCC2)ccc1Nc1nc(Oc2cccc(C)c2C)cc2cnnc(O)c12 [Example 82, 7-(2,3-dimethylphenoxy)-5-{[2-methoxy-4-(piperazin-1-yl)phenyl]amino}pyrido[3,4-d]pyridazin-4-ol]
6.86 | CCOc1cc(CN2CCCC2)ccc1Nc1nc(Oc2ccccc2Cl)cc2cn[nH]c(=O)c12 [Example 95, 7-(2-chlorophenoxy)-5-{[2-ethoxy-4-(pyrrolidin-1-ylmethyl)phenyl]amino}pyrido[3,4-d]pyridazin-4(3H)-one]
8.22 | COc1cc(C2CCNCC2)ccc1Nc1cc(Cc2c(F)cccc2F)nc2cn[nH]c(=O)c12 [Example 109, 2-(2,6-difluorobenzyl)-4-{[2-methoxy-4-(piperidin-4-yl)phenyl]amino}pyrido[2,3-d]pyridazin-5(6H)-one]
8.40 | COc1cc2c(cc1Nc1cc(Cc3c(Cl)cccc3Cl)cc3cn[nH]c(=O)c13)CNCC2 [Example 74, 6-(2,6-dichlorobenzyl)-8-[(6-methoxy-1,2,3,4-tetrahydroisoquinolin-7-yl)amino]phthalazin-1(2H)-one]
